Paper PMC12778052 (Science Advances, 2026)

Key:
SCaBER tumors = test: Pilot in vivo EV effect on tumor uptake of [^68Ga]AJ647, SCaBER tumors; parameters: species or system NSG mice; conditions: EV 20 mg/kg i.v. single dose, 24 hours before tracer, ex vivo 60 min, n = 5
Procedure: Male NSG mice were implanted subcutaneously with HT1376 and SCaBER cells (4 million each) on the right and left rostral ends, respectively. On day 25 after cell inoculation (average tumor volume, 200 ± 35 mm^3), mice were randomized and treated with a single dose of either saline or EV ADC (20 mg/kg) injected intravenously (volume not exceeding 300 μl) or with 200 μl of saline (n = 7 per group). Twenty-four hours following the EV dose, [^68Ga]AJ647 PET scans (n = 2 per group) were acquired, and ex vivo biodistribution (n = 5 per group) was performed using the protocols mentioned above.

HT1376 tumor xenograft = test: TE and EV therapy response study, HT1376 xenograft; assay type: in vivo, NSG mice; conditions: for mice showing a drop in [^68Ga]AJ647 uptake: day 6
Procedure: Mice with tumor volumes of ~100 to 150 mm^3 were injected with ~200 μCi [7.4 megabecquerels (MBq)] of [^68Ga]AJ647 in […] of 5% ethanol in saline intravenously and anesthetized under 2.5% isoflurane. PET-computed tomography (CT) images were acquired at 60 min after radiotracer injection at 5 min per bed in an ARGUS small-animal PET/CT scanner (Sedecal, Madrid, Spain) as described previously (n = 3, unless otherwise noted). PET-MR images were acquired on a simultaneous 7T Bruker PET-MR scanner. Dynamic imaging was conducted to evaluate the PK of [^68Ga]AJ647. [^68Ga]AJ647 was injected (with the help of a catheter) after mice were anesthetized under 2.5% isoflurane on the equipment bed. All PET data were reconstructed using the two-dimensional (2D) ordered subset expectation maximization algorithm and corrected for radioactive decay and dead times. The SUV values were calculated by finding %IA on the basis of a calibration factor obtained from a known radioactive quantity and then normalizing by mice weight. Amide software was used to derive SUV values by drawing the region of interest to closely fit tumors. In particular, MR images were used to identify tumor boundaries manually; these boundaries were transferred to co-registered PET images to derive SUVs. This process was repeated for each mouse individually in a blinded fashion. For the change in accessible Nectin-4 following EV treatment, ΔSUV was calculated by subtracting baseline (pre-treatment) uptake from posttherapy uptake of [^68Ga]AJ647. TE was quantified by normalizing this change by initial SUV in the same subject controls. Image fusion, visualization, and 3D rendering were accomplished using Amira 2020.3.1 (FEI, Hillsboro, OR).
Male NSG (n = 35) mice were inoculated with 4 million HT1376 cells at day 0. On day 23 (average tumor volume, 170 ± 22 mm^3), mice were randomized to receive either saline or a single dose of EV (6 or 15 mg/kg) intravenously (n = 10 for each group). Mice (n = 10) from each dose group were imaged on days 22 (pre-EV) and 29 (6 days post-EV). Saline mice (n = 5) were imaged on day 25 to serve as temporal and treatment control. Mouse body weight and tumor measurements were recorded until saline group tumors reached 1500 mm^3 in average size. Responders and nonresponders were identified using mRECIST for mice published elsewhere ([34]). Briefly, the percentage change in volume relative to the baseline: % tumor volume change (ΔVolt) = 100% × [(Vt − Vinitial)/Vinitial]. BestResponse was the lowest ΔVolt for t ≥ 10 days. For each time t, the average ΔVolt from t = 0 to t was calculated, with the BestAvgResponse defined as the lowest average ΔVolt for t ≥ 10 days. mRECIST, adapted from RECIST21, assigned response labels when both the BestResponse and BestAvgResponse conditions are met at the same time. A modified complete response is defined when BestResponse is less than −95% and BestAvgResponse is less than −40%. A modified partial response is assigned when BestResponse is less than −50% and BestAvgResponse is less than −20%. Modified stable disease is defined when BestResponse is less than 35% and BestAvgResponse is less than 30%. Modified progressive disease is assigned when none of these criteria are satisfied.
We defined modified progressive disease as nonresponders (0 response) and stable disease or better as responders (1 response). […]

[1] = 1.25 mg/kg dose level; cited from earlier work
Description: Focusing on EV, an FDA-approved ADC targeting Nectin-4 ([11]), we aimed to test whether PET-measured target engagement (TE) could better define the relationships among dose, exposure, and therapeutic response. […] Adjustments in the dosage were more ...

HT1376 cells = test: In vitro binding of [^68Ga]AJ647 to HT1376 cells; assay type: cell-based; conditions: 1 × 10^6 cells, ~1 μCi, 30 min, 4°C, means ± SD, n = 4
Procedure: (§1) In vitro binding of [^68Ga]AJ647 to T24, SCaBER, RT112, UC9, UC14, and HT1376 cells was determined by incubating 1 × 10^6 cells with ~1 μCi of [^68Ga]AJ647 for 30 min at 4°C. After incubation, cells were washed three times with ice-cold PBS containing 0.1% Tween 20 and counted on an automated gamma counter. All cell radioactivity uptake studies were performed in quadruplicate for each cell line and repeated three times.

UC14 cells = test: In vitro binding of [^68Ga]AJ647 to UC14 cells; assay type: cell-based; conditions: 1 × 10^6 cells, ~1 μCi, 30 min, 4°C, means ± SD, n = 4
Procedure: as §1

UC9 cells = test: In vitro binding of [^68Ga]AJ647 to UC9 cells; assay type: cell-based; conditions: 1 × 10^6 cells, ~1 μCi, 30 min, 4°C, means ± SD, n = 4
Procedure: as §1

Compound	reduction in [^68Ga]AJ647 tumor uptake vs saline controls (SCaBER tumors) [%]	mice showing a drop in [^68Ga]AJ647 uptake (HT1376 tumor xenograft; EV 6 mg/kg)	mice showing a drop in [^68Ga]AJ647 uptake (HT1376 tumor xenograft; EV 15 mg/kg)	final tumor volume (HT1376 tumor xenograft; EV-treated mice with higher TE, in mm³ (unit assumed))	final tumor volume (HT1376 tumor xenograft; EV-treated mice with less than 30% TE)	tumor growth (HT1376 tumor xenograft; single dose EV 6 or 15 mg/kg, n = 10 per group, more pronounced at 15 mg/kg)	patients needing dosage adjustments [1]	[^68Ga]AJ647 uptake (HT1376 cells) [%IA]	[^68Ga]AJ647 uptake (UC14 cells) [%IA]	[^68Ga]AJ647 uptake (UC9 cells) [%IA]
enfortumab vedotin [EV]	72	5 of 10	9 of 10	324.9 ± 194.6	759.4 ± 455	Tumor growth inhibition was observed in both groups	more than 32%			
CSCC[C@@H]1NC(=O)[C@@H]2CSCCC(=O)N3CN(CN(C3)C(=O)CCSC[C@H](NC(=O)CCOCCOCCOCCOCCOCCOCCOCCOCCOCCOCCOCCOCCNC(=O)CN3CCN(CC(=O)O)CCN(CC(=O)O)CC3)C(=O)N3CCC[C@H]3C(=O)N[C@@H](Cc3cccc4ccccc34)C(=O)N[C@@H](CC(=O)O)C(=O)N2)C(=O)CCSC[C@@H](C(N)=O)NC(=O)[C@H](Cc2c[nH]c3ccccc23)NC(=O)[C@@H]2C[C@@H](O)CN2C(=O)[C@@H]2CCCN2C(=O)[C@H]([C@@H](C)O)NC(=O)[C@H](CO)NC(=O)[C@H](Cc2c[nH]c3ccccc23)NC(=O)[C@@H](CC(=O)O)NC(=O)[C@H](CCCCNC(=N)N)NC1=O [[^68Ga]AJ647, metal not drawn]								6.5 ± 0.52	3.0 ± 0.42	2.2 ± 0.48
